Measured values taken from patent publication US20090275574A1, “NOVEL COMPOUNDS-300” (ASTRAZENECA AB, priority 2008, published 2009).

target: T1, cloned human M2 receptor (Homo sapiens, UniProt P08172); test: hM2 receptor GTPγS binding; format: biochemical; details: CHO membranes expressing hM2, [35S]GTPγS binding
T1 construct: purchased Perkin-Elmer RBHM2M; host or cells: Chinese hamster ovary cells (CHO), membranes
T1 sequence (P08172 1-466): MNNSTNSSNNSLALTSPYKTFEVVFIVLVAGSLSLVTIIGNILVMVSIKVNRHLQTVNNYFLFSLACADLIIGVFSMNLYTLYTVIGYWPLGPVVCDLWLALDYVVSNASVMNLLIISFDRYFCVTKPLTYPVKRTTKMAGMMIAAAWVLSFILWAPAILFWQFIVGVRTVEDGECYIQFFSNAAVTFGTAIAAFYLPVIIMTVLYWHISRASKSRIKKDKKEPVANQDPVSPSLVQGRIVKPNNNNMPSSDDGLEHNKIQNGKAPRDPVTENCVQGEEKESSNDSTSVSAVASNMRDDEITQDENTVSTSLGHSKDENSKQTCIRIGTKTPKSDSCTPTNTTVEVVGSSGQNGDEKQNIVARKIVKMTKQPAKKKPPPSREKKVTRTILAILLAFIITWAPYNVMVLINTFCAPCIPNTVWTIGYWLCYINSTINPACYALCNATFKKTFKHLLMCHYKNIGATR
Method: hM2 Receptor GTPγS Binding Membranes produced from Chinese hamster ovary cells (CHO) expressing the cloned human M2 receptor (human Muscarinic receptor subtype 2, gene bank access NM_000739), are obtained from Perkin-Elmer (RBHM2M). The membranes are thawed at 37° C., passed 3 times through a 23-gauge blunt-end needle, diluted in the GTPγS binding buffer (50 mM Hepes, 20 mM NaOH, 100 mM NaCl, 1 mM EDTA, 5 mM MgCl2, pH 7.4, 100 μM DTT). The EC50, IC50 and Emax of the compounds of the invention are evaluated from 10-point dose-response curves (three fold concentration range) done in 60 μl in 384-well non-specific binding surface plate (Corning). Ten microliters from the dose-response curves plate (5× concentration) are transferred to another 384 well plate containing 25 μl of the following: 5 μg of hM2 membranes, 500 μg of Flashblue beads (Perkin-Elmer) and GDP 25 μM. An additional 15 μl containing 3.3× (60,000 dpm) of GTPγ^35S (0.4 nM final) are added to the wells resulting in a total well volume of 50 μl. Basal and maximal stimulated [^35S]GTPγS binding are determined in absence and presence of 30 μM final of acetylcholine agonist. The membranes/beads mix are pre-incubated for 15 minutes at room temperature with 25 μM GDP prior to distribution in plates (12.5 μM final). The reversal of acetylcholine-induced stimulation (2 μM final) of [^35S]GTPγS binding is used to assay the antagonist properties (IC50) of the compounds. The plates are incubated for 60 minutes at room temperature then centrifuged at 400 rpm for 5 minutes. The radioactivity (cpm) is counted in a Trilux (Perkin-Elmer). Values of EC50, IC50 and Emax are obtained using sigmoidal fits of a non-linear curve-fitting program (XLfit version 4.2.2 Excel add-in version 4.2.2 build 18 math 1Q version 2.1.2 build 18) of percent stimulated [^35S]GTPγS binding vs. log(molar ligand). All pEC50 and pIC50 values are reported as arithmetic means±standard error of mean of ‘n’ independent experiments.

EC50	Compound
> 15000 nM	O=C1CO[C@H]2CCCC[C@@H]2N1C1CCN(C2CC(COCC3CC3)C2)CC1 (single isomer, unassigned) [Example 41]
340 nM	O=C1NC[C@H]2CCCC[C@@H]2N1C1CCN(C2CCC(COCC(F)F)CC2)CC1 (single isomer, unassigned) [Example 50]

target: T2, hM3 (human Muscarinic receptor subtype 3) (Homo sapiens, UniProt P20309); test: Human M3 calcium mobilization FLIPR assay; format: cell-based; details: hM3 expressed in CHO cells, intracellular Ca2+ release (FLIPR)
T2 construct: expressed in transfected cells; host or cells: CHO cells (ATCC)
Method: (§1) Human M1, rat M1, Human M3 and Human M5 Calcium Mobilization FLIPR™ Assay The compound activity in the present invention (EC50 or IC50) is measured using a 384 plate-based imaging assay that monitors drug induced intracellular Ca^2+ release in whole cells. Activation of hM1 (human Muscarinic receptor subtype 1, gene bank access NM_000738), rM1 (rat Muscarinic receptor subtype 1, gene bank access NM_080773), hM3 (human Muscarinic receptor subtype 3, gene bank access NM_000740NM_000740) and hM5 (human Muscarinic receptor subtype 5, gene bank access NM_0121258), receptors expressed in CHO cells (Chinese hamster ovary cells, ATCC) is quantified in a Molecular Devices FLIPR IITM instrument as an increase in fluorescent signal. Inhibition of hM3 and hM5 by compounds is determined by the decrease in fluorescent signal in response to 2 nM acetylcholine activation. […] Prior to experiment, the cell culture medium is removed from the plates by inversion. […] Plates are incubated at 37° C. for 60 minutes prior to start the experiment. The incubation is terminated by washing the cells four times in assay buffer, leaving a residual 25 μl buffer per well. Cell plates are then transferred to the FLIPR, ready for compound additions. The day of experiment, acetylcholine and compounds are diluted in assay buffer in three-fold concentration range (10 points serial dilution) for addition by FLIPR instrument. For all calcium assays, a baseline reading is taken for 10 seconds followed by the addition of 12.5 μl of compounds, resulting in a total well volume of 37.5 μl. Data is collected every second for 60 pictures and then every 6 seconds for 20 pictures prior to the addition of agonist. For hM3 and hM5, before agonist addition, a second baseline reading is taken for 10 seconds followed by the addition of 12.5 μl of agonist or buffer, producing a final volume of 50 μl. After agonist stimulation, the FLIPR continues to collect data every second for 60 pictures and then every 6 seconds for 20 pictures. The fluorescence emission is read using filter 1 (emission 510-570 nm) by the FLIPR on board CCD camera. Calcium mobilization output data are calculated as the maximal relative fluorescence unit (RFU) minus the minimal value for both compound and agonist reading frame (except for hM1 and rM1 using only the maximal RFU). Data are analyzed using sigmoidal fits of a non-linear curve-fitting program (XLfit version 4.2.2 Excel add-in version 4.2.2 build 18 math 1Q version 2.1.2 build 18). All pEC50 and pIC50 values are reported as arithmetic means±standard error of mean of ‘n’ independent experiments.

T2 sequence (P20309 whole entry): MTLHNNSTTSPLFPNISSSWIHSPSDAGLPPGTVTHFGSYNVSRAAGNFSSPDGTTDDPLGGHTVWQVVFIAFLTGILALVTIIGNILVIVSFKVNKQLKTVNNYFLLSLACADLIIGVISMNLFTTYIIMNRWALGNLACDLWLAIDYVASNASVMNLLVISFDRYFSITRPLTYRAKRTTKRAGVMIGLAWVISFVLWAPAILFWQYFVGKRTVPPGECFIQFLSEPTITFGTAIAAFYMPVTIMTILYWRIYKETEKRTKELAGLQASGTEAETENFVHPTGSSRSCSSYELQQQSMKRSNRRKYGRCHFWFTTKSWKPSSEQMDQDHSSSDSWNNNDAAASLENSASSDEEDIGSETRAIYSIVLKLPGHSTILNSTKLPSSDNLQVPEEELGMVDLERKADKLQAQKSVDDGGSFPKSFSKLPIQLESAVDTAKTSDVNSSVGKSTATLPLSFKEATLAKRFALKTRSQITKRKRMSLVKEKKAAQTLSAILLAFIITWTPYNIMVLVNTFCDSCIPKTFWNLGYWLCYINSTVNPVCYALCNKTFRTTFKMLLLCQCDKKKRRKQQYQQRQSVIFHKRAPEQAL

EC50	Compound
> 40000 nM	CCC1CCC(N2CCC(N3C(=O)NC[C@H]4CCCC[C@@H]43)CC2)CC1 (mixture of isomers) [Example 11, (4aR,8aS)-1-(1-(4-ethylcyclohexyl)piperidin-4-yl)octahydroquinazolin-2(1H)-one]
> 40000 nM	O=C1NC[C@H]2CCCC[C@@H]2N1C1CCN(C2CCCCC2)CC1 [Example 12, (4aR,8aS)-1-(1-cyclohexylpiperidin-4-yl)octahydroquinazolin-2(1H)-one]

target: T3, hM1 (human Muscarinic receptor subtype 1) (Homo sapiens, UniProt P11229); test: Human M1 calcium mobilization FLIPR assay; format: cell-based; details: hM1 expressed in CHO cells, intracellular Ca2+ release (FLIPR)
T3 construct: expressed in transfected cells; host or cells: CHO cells (ATCC)
T3 sequence (P11229 1-460): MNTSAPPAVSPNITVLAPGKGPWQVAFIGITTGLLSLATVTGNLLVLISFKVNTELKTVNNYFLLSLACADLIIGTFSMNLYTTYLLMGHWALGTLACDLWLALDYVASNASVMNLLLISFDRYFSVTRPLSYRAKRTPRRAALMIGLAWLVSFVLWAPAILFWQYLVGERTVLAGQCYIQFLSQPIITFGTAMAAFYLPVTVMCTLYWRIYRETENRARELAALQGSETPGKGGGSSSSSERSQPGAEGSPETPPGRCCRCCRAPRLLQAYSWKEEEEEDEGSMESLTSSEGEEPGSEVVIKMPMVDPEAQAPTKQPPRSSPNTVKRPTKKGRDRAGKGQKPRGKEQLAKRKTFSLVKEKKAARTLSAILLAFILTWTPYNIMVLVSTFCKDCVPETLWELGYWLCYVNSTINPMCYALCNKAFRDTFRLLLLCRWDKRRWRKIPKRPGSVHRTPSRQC
Method: as §1

EC50	Compound
31 nM	C#CCOC1CCC(N2CCC(N3C(=O)NC[C@H]4CCCC[C@@H]43)CC2)CC1 (mixture of isomers) [Example 09, (4aR,8aS)-1-(1-(4-(prop-2-ynyloxy)cyclohexyl)piperidin-4-yl)octahydroquinazolin-2(1 H)-one]
43 nM	CCC1CCC(N2CCC(N3C(=O)NC[C@H]4CCCC[C@@H]43)CC2)CC1 (mixture of isomers) [Example 11, (4aR,8aS)-1-(1-(4-ethylcyclohexyl)piperidin-4-yl)octahydroquinazolin-2(1H)-one]
160 nM	CCCOC1CCC(N2CCC(N3C(=O)NC[C@H]4CCCC[C@@H]43)CC2)CC1 (single isomer, unassigned) [Example 05]
660 nM	CC(C)OC1CCC(N2CCC(N3C(=O)NC[C@H]4CCCC[C@@H]43)CC2)CC1 (single isomer, unassigned) [Example 07]
190 nM	CCCOC1CCC(N2CCC(N3C(=O)CO[C@H]4CCCC[C@@H]43)CC2)CC1 (single isomer, unassigned) [Example 16]
170 nM	O=C1CO[C@H]2CCCC[C@@H]2N1C1CCN(C2CCC(OCC3CC3)CC2)CC1 (single isomer, unassigned) [Example 20]
110 nM	O=C1CO[C@H]2CCCC[C@@H]2N1C1CCN(C2CCC(OCC3CC3)CC2)CC1 (single isomer, unassigned) [Example 21]
200 nM	CCOCC1(C)CCC(N2CCC(N3C(=O)CO[C@H]4CCCC[C@@H]43)CC2)CC1 (single isomer, unassigned) [Example 30]
190 nM	CCOCC1(C)CCC(N2CCC(N3C(=O)CO[C@H]4CCCC[C@@H]43)CC2)CC1 (single isomer, unassigned) [Example 31]
110 nM	CCOC[C@H]1CC[C@@H](N2CCC(N3C(=O)COC4CCCCC43)CC2)CC1 (single isomer, unassigned) [Example 33]
80 nM	CCOC[C@H]1CC[C@@H](N2CCC(N3C(=O)COC4CCCCC43)CC2)CC1 (single isomer, unassigned) [Example 34]
180 nM	CC(C)OCC1CCC(N2CCC(N3C(=O)CO[C@@H]4CCC(F)(F)C[C@H]43)CC2)CC1 (single isomer, unassigned) [Example 35]
310 nM	CC(C)OCC1CCC(N2CCC(N3C(=O)CO[C@@H]4CCC(F)(F)C[C@H]43)CC2)CC1 (single isomer, unassigned) [Example 36]
52 nM	O=C1CO[C@H]2CCCC[C@@H]2N1C1CCN(C2CC(COCC3CC3)C2)CC1 (single isomer, unassigned) [Example 41]
110 nM	O=C1COC2CCCC2N1C1CCN([C@H]2CC[C@@H](COCC3CC3)CC2)CC1 (single isomer, unassigned) [Example 49]
0.76 nM	O=C1NC[C@H]2CCCC[C@@H]2N1C1CCN(C2CCC(COCC(F)F)CC2)CC1 (single isomer, unassigned) [Example 50]
68 nM	O=C1NC[C@H]2CCCC[C@@H]2N1C1CCN(C2CCCC2)CC1 [Example 10, (4aR,8aS)-1-(1-cyclopentylpiperidin-4-yl)octahydroquinazolin-2(1H)-one]
60 nM	O=C1NC[C@H]2CCCC[C@@H]2N1C1CCN(C2CCCCC2)CC1 [Example 12, (4aR,8aS)-1-(1-cyclohexylpiperidin-4-yl)octahydroquinazolin-2(1H)-one]
190 nM	O=C1CO[C@@H]2CCCC[C@H]2N1C1CCN([C@H]2CC[C@@H](COCC3CC3)CC2)CC1 [Example 32, (4aR,8aR)-4-(1-((1s,4S)-4-((cyclopropylmethoxy)methyl)cyclohexyl)piperidin-4-yl)hexahydro-2H-benzo[b][1,4]oxazin-3(4H)-one]
290 nM	CCOC[C@H]1CC[C@@H](N2CCC(N3C(=O)CO[C@@H]4CCCC[C@H]43)CC2)C1 [Example 46, (4aR,8aR)-4-(1-((1R,3S)-3-(ethoxymethyl)cyclopentyl)piperidin-4-yl)hexahydro-2H-benzo[b][1,4]oxazin-3(4H)-one]
93 nM	O=C1CO[C@@H]2CCC[C@@H]2N1C1CCN([C@H]2CC[C@@H](COCC3CC3)CC2)CC1 [Example 47, (4aS,7aR)-4-(1-((1s,4R)-4-((cyclopropylmethoxy)methyl)cyclohexyl)piperidin-4-yl)hexahydrocyclopenta[b][1,4]oxazin-3(2H)-one]
